What was measured:
[1] = target: T1, Bone morphogenetic protein receptor type-2 (Homo sapiens) (UniProt Q13873); experiment: Inhibition of BMPR2 (unknown origin) assessed as residual activity at 100 nM by KINOMEscan analysis relative to control
T1 sequence (whole entry): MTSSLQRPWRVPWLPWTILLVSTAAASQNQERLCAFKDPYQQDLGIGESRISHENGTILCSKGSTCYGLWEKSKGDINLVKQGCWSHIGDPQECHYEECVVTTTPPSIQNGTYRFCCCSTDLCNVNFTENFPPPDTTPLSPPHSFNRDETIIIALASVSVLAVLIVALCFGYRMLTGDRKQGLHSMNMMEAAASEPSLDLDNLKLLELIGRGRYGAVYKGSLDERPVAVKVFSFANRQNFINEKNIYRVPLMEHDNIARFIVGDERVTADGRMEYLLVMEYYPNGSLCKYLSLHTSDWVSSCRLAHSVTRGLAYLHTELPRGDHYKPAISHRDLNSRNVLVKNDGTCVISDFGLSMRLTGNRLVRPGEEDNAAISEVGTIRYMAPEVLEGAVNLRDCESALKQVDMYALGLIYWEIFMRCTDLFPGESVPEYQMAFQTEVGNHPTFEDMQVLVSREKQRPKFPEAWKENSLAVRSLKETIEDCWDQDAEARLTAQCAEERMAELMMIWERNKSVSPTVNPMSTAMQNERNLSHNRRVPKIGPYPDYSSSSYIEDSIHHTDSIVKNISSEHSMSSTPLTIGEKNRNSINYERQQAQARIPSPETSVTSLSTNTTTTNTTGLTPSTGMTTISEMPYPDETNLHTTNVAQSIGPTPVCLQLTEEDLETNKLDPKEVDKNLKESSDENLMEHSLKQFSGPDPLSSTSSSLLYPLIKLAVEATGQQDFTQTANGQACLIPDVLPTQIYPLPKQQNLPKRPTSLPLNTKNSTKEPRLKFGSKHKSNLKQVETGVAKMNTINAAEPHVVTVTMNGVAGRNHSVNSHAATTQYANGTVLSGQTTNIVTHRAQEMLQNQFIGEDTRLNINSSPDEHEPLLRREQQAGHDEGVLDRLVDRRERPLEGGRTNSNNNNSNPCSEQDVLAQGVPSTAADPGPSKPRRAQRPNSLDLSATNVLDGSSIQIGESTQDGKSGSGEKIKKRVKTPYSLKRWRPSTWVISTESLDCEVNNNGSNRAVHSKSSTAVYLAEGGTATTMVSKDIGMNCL

[2] = target: Receptor-type tyrosine-protein kinase FLT3 (Homo sapiens) (UniProt P36888); experiment: Inhibition of autoinhibited FLT3 (unknown origin) assessed as residual activity at 100 nM by KINOMEscan analysis relative to control
[3] = target: T2, Non-receptor tyrosine-protein kinase TNK1 (Homo sapiens) (UniProt Q13470); experiment: Inhibition of TNK1 (unknown origin) assessed as residual activity at 100 nM by KINOMEscan analysis relative to control
T2 sequence (whole entry): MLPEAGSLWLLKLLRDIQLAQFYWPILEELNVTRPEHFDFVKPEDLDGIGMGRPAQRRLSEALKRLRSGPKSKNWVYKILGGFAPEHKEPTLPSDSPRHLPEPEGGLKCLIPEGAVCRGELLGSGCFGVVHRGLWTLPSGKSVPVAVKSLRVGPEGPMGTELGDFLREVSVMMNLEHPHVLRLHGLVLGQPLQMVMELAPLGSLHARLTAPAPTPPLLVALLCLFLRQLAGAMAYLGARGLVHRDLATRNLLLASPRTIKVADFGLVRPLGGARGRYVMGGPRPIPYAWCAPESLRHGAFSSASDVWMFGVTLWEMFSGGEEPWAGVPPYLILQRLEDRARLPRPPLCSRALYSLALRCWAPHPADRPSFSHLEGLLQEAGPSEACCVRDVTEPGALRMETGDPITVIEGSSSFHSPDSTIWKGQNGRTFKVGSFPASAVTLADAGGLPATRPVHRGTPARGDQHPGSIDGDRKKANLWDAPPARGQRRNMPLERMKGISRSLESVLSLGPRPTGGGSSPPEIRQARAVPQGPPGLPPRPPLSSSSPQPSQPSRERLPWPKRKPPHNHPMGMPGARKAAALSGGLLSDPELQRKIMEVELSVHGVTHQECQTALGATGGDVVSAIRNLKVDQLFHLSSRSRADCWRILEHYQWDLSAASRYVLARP

[4] = target: Tyrosine-protein kinase receptor UFO (Homo sapiens) (UniProt P30530); experiment: Inhibition of AXL (unknown origin) assessed as residual activity at 100 nM by KINOMEscan analysis relative to control
[5] = test system: Epidermal growth factor receptor (Homo sapiens), P00533 [L858R,T790M]; experiment: Inhibition of EGFR L858R/T790M mutant (unknown origin) assessed as residual activity at 100 nM by KINOMEscan analysis relative to control
[6] = target: Bone morphogenetic protein receptor type-1B (Homo sapiens) (UniProt O00238); experiment: Inhibition of BMPR1B (unknown origin) assessed as residual activity at 100 nM by KINOMEscan analysis relative to control
Sequence of Bone morphogenetic protein receptor type-1B (Homo sapiens) (O00238 whole entry): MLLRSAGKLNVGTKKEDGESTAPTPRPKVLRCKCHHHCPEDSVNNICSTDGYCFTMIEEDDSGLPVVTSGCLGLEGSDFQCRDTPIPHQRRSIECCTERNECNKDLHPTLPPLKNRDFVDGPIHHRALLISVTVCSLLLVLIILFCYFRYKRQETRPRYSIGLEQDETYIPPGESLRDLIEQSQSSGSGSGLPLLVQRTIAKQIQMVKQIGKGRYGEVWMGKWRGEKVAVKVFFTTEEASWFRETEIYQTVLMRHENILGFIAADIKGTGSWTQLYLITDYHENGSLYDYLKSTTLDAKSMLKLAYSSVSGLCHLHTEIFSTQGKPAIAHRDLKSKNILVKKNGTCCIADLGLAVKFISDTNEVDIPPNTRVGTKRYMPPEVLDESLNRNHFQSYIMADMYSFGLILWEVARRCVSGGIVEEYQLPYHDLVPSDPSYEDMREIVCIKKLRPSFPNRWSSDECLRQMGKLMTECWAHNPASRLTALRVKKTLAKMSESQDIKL

Sequence of Receptor-type tyrosine-protein kinase FLT3 (Homo sapiens) (P36888 whole entry): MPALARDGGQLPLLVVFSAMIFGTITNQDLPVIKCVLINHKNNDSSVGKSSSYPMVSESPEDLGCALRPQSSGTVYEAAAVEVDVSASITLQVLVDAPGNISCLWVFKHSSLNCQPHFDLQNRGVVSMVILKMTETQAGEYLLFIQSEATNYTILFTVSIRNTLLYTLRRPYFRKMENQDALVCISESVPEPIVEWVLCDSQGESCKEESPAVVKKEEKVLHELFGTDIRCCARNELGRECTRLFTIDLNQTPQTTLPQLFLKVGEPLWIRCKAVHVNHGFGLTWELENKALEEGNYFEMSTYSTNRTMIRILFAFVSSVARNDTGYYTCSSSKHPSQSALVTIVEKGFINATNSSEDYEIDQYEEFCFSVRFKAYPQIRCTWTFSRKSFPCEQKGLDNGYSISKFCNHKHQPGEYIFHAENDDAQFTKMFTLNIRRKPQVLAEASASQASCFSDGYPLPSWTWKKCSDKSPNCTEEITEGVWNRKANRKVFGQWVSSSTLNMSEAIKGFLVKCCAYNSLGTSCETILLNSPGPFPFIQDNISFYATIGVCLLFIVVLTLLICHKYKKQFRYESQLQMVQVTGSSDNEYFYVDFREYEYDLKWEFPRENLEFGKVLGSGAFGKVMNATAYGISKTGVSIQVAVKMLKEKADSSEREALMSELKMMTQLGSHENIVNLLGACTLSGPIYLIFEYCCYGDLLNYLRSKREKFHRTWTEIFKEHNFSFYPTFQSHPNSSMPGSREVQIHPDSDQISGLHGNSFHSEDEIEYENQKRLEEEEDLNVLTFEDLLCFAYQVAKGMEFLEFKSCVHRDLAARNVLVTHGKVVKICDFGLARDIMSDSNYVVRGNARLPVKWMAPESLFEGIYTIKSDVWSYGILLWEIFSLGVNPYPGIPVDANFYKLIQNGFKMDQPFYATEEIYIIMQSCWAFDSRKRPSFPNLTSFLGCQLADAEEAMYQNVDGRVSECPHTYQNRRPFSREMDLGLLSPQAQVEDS
Sequence of Tyrosine-protein kinase receptor UFO (Homo sapiens) (P30530 whole entry): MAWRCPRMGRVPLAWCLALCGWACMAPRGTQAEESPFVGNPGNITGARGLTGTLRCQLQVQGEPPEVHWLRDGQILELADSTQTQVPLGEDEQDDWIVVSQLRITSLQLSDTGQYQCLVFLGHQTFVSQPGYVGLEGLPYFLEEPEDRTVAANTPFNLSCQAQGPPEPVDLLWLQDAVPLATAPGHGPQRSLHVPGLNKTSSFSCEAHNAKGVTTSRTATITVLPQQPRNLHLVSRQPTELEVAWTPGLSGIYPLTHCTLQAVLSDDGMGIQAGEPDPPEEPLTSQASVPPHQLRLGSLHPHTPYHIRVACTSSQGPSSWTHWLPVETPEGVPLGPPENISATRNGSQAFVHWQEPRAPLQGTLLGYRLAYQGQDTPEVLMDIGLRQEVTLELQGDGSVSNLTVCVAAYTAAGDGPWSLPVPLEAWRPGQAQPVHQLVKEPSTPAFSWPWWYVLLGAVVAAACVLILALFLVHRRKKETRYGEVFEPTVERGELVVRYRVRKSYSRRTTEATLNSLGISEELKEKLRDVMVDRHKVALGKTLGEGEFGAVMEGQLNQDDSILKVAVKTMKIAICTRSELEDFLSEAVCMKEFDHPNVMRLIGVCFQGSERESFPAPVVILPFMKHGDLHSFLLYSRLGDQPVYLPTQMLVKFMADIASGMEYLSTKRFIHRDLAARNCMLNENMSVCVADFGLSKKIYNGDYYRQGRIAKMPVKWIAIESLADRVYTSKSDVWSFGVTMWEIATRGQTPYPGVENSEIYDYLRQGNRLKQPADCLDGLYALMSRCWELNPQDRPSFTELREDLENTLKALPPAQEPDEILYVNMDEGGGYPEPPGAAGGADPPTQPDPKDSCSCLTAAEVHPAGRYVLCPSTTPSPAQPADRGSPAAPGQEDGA

Structure (SMILES): COc1cc2ncnc(N[C@H](C)c3cccc4ccccc34)c2cc1OC
- Activity [1]: 97%
- Activity [2]: 88%
- Activity [3]: 86%
- Activity [4]: 86%
- Activity [5]: 85%
- Activity [6]: 92%

Source: ChEMBL document CHEMBL5678818, “Discovery of potent SOS1 inhibitors that block RAS activation via disruption of the RAS-SOS1 interaction” (Proc Natl Acad Sci U S A, 2019)
